Values quoted from earlier work in patent publication US11324771B2 (priority 2020, dated 2022).
Like-named read-outs stand apart in the source and are kept apart here.

Legend:
[1] = not given; remark: listed apart in the source

Substance: cobinamide dihydroxide dihydrogen phosphate (ester), mono (inner salt), 3′-ester with 5,6-dimethyl-1-α-D-ribofuranosyl-1H-benzimidazole [Hydroxocobalamin]
- solubility in aqueous buffer (pH 1.2): highly soluble
- solubility in aqueous buffer (pH 4.5): highly soluble
- solubility in aqueous buffer (pH 6.8): < 400 µg/mL
- solubility in aqueous buffer (pH 7.5): < 400 µg/mL
- solubility in acetone ([1]; acetone): practically insoluble
- solubility in benzene ([1]; benzene): practically insoluble
- solubility in chloroform ([1]; chloroform): practically insoluble
- solubility in dimethyl sulfoxide ([1]; dimethyl sulfoxide): freely soluble
- solubility in diethyl ether / ether ([1]; ether): practically insoluble
- solubility in ethyl acetate ([1]; ethyl acetate): practically insoluble
- solubility in methanol ([1]; methanol): freely soluble
- solubility in water ([1]; water): freely soluble
